The subject of one data set is oxaliplatin-treated mice. Description: Oxaliplatin-induced cold hyperalgesia, cold-plantar test. It counts as in vivo, mouse. The procedure: Male and female C57 BL/6J mice from Taconic Labs were randomized by sex and cage to oxaliplatin or vehicle groups. Mice were weighed and injected intraperitoneally (i.p.) with either oxaliplatin (3 mg·kg^−1), or vehicle (5% dextrose) once per day every day for five consecutive days, followed by five days off, and then by a second round of once per day for five more days. Therefore, mice received a total of 10 injections for a total of 30 mg·kg^−1. The average weight of the females was 18 g while of the males was 20 g. Consequently, the females received an average of 540 and the males 600 μg in total. Behavioural testing was started after the second round of oxaliplatin/vehicle administration. The cold-plantar test was used to assess changes in cold sensitivity. A 3 ml syringe barrel filled with powdered dry ice was used as the stimulus. The dry ice is placed on the glass (borosilicate glass; thickness, 1/8 in. (3.17 mm); temperature, 75°F (24°C), measured with a calibrated IR temperature probe) beneath the hindpaw and the latency to withdraw was determined ([Yilmaz et al., 2017]). The baseline withdrawal latency was determined from the mean of three stimulus applications (at an inter-stimulus interval of ~5 min), while that at each time interval after the administration of a test agent was again the mean of three stimulus applications bracketing the time point in question (i.e., 5 min before, at the time point, and 5 min after). Mice in the two groups defined by oxaliplatin treatment were subsequently randomized to the order of treatment (with the TRPM8 antagonist VBJ103, or vehicle control). VBJ103 and vehicle solutions were administered subcutaneously (s.c.) at doses of 3, 10 and 30 mg·kg^−1. Mice were tested every other day over 7 days so that each mouse received all four injections (vehicle and three doses of VBJ103). In a second cohort of male (n = 8) and female (n = 8) mice, all mice were treated with oxaliplatin as described above, and then randomized to the order of treatment with vehicle, VBJ103 (30 mg·kg^−1) alone, the TRPA1 antagonist, HC-030031 (200 mg·kg^−1) alone, or the combination of VBJ103 (30 mg·kg^−1) and HC-030031 (200 mg·kg^−1). A third cohort of male (n = 7) and female (n = 8) mice was also treated with oxaliplatin as described above. […] All test agents in both follow-up cohorts were again administered in a volume of 5 ml·kg^−1. Mice in both follow-up cohorts were again tested every other day over a period of 6 days. Finally, a fourth cohort of male (n = 4) and female (n = 4) mice was used to confirm that 200 mg·kg^−1 HC-030031 was sufficient to block TRPA1. For this experiment, mice were randomized to the order of treatment with vehicle or HC-030031 ([…]).

The next data set has as its system AITC-treated mice. Description: AITC-induced nociceptive behaviours. Type of data set: in vivo, mouse. As to conditions: HC-030031 200 mg·kg−1, 30 min before AITC 3 mg·kg−1 i.p.; quantified over 20 min. The method, then: Male and female C57 BL/6J mice from Taconic Labs were randomized by sex and cage to oxaliplatin or vehicle groups. Mice were weighed and injected intraperitoneally (i.p.) with either oxaliplatin (3 mg·kg^−1), or vehicle (5% dextrose) once per day every day for five consecutive days, followed by five days off, and then by a second round of once per day for five more days. Therefore, mice received a total of 10 injections for a total of 30 mg·kg^−1. The average weight of the females was 18 g while of the males was 20 g. Consequently, the females received an average of 540 and the males 600 μg in total. Behavioural testing was started after the second round of oxaliplatin/vehicle administration. The cold-plantar test was used to assess changes in cold sensitivity. […] The dry ice is placed on the glass (borosilicate glass; thickness, 1/8 in. (3.17 mm); temperature, 75°F (24°C), measured with a calibrated IR temperature probe) beneath the hindpaw and the latency to withdraw was determined ([Yilmaz et al., 2017]). The baseline withdrawal latency was determined from the mean of three stimulus applications (at an inter-stimulus interval of ~5 min), while that at each time interval after the administration of a test agent was again the mean of three stimulus applications bracketing the time point in question (i.e., 5 min before, at the time point, and 5 min after). […]

A further data set concerns the target T1, human TRPA1 (Homo sapiens, UniProt O75762).
T1 construct: expressed in transfected cells; host or cells: HEK293T
Description: FlexStation Ca2+ flux assay in HEK293T cells transfected with human TRPA1. The settings on record: against an EC80 concentration (10 μM) of AITC. It counts as cell-based. The procedure: (§1) The human embryonic kidney cell line (HEK293T, CRL-1573, RRID: CVCL_0045) was purchased from the American Type Culture Collection (Manassas, USA) and was maintained in Dulbecco’s Minimal Essential Medium (DMEM, Cellgro10013CV, Corning, Tewksbury, USA) that was supplemented with 10% fetal bovine serum (Gemini Bio-products), 2-mM L-glutamine (Invitrogen) and 100 U/mL penicillin and streptomycin (Invitrogen) and cultured in an incubator at 37°C, 5% CO2 and 95% humidity. Human TRPV1 and TRPA1 plasmid DNA (gift from D. Julius) were transiently bulk transfected individually into HEK293T cells using the FuGene HD transfection reagent (TFR, Promega, Madison, WI, USA) at a 3:1 ratio (TFR:DNA). Transfected cells were seeded at 10,000 cells per well in a volume of 25 μl into black walled collagen coated 384-well microtiter plates and cultured in an incubator at 37°C, 5% CO2 and 95% humidity for 48 h prior to the initiation of calcium mobilization experiments performed on a FlexStation 3 (Molecular Devices, Sunnyvale, CA, USA) platform equipped with a 16-channel robotic pipettor head and FLIPR tetra pipette tips. At 46 h post transfection, cell monolayers were preloaded with 25 μl of the FLIPR Calcium 6 dye (Molecular Devices) for 2 h in an incubator at 37°C, 5% CO2 and 95% humidity according to the manufacturer’s instructions. The plate was transferred to a FlexStation 3 microplate reader. Relative fluorescence units (RFUs) (Ex. 485 nm, Em 525 nm) were then acquired at 37°C in the kinetic mode. The run time for the agonist (1st) and antagonist (2nd) reads were 60 s each, for a total run time of 120 s, with an interval of 3.1 s between reads in the same well to allow all 16 wells in a column to be read sequentially, and the photomultiplier tube (PMT) level was set at medium, with 6 flashes per read. Baseline Fluo-6 RFUs were acquired for 18 s prior to the addition of compound in both the agonist and antagonist reads. For the first addition agonist read, the volume in the well was 50 μl, the pipette height was set at 40 μl, and 12.5 μl of the test compound was delivered at a speed of 2 μl·s^−1 after the baseline RFU’s acquisition period at 19 s, and the RFUs were acquired for an additional 41 s. For the second addition antagonist read, the volume in the well was 62.5 μl, the pipette height was set at 40 μl, and 12.5 μl of an EC80 agonist concentration was delivered at a speed of 2 μl/s after the baseline RFU’s acquisition period at 19 s, and the RFUs were acquired for an additional 41 s. The FlexStation 3 instrument settings, automated pipetting and data collection were all controlled by the SoftMax Pro software, version 7.1.2.
To analyse the agonist and antagonist Ca^2+ mobilization Fluo-6 RFU’s kinetic data, the RFU’s readings acquired throughout the 60-s acquisition period for each individual well were divided by the average RFU values acquired during the first 18-s baseline acquisition period from the same well to calculate a fold over baseline (FOB) ratio.

The nature of data set [1]: Core body temperature and home cage activity by radiotelemetry (s.c., i.p.). It counts as in vivo, mouse. As to conditions: capsaicin 1 mg·kg−1 s.c. The procedure: Male and female C57Bl6J (Jackson Laboratories, Bar Harbor, USA, 8–12 weeks of age, 4 M:3F) were anaesthetised with isoflurane (2%–3% in 100% oxygen), and an HDX11 telemetry unit (Data Sciences) was inserted into the peritoneal cavity through a ventral midline incision. Animals were treated with buprenex (0.05 mg·kg^−1, s.c.every 8 h for 72 h) and enrofloxacin (2 mg·kg^−1, s.c.) and single-housed in a reverse light–dark cycle room (lights off 10 AM–10 PM). Mice were handled every day to acclimatise to injections, and experiments began 1 week later. All injections were performed between 1 and 2 PM. […] Body temperature was averaged into 5-min bins, whereas activity data were summed for the 5-min bin.

The next data set addresses T2, human TRPV1 (Homo sapiens, UniProt Q8NER1).
T2 construct: expressed in transfected cells; host or cells: HEK293T
The experiment in a line: FlexStation Ca2+ flux assay in HEK293T cells transfected with human TRPV1. Type of data set: cell-based. The method, then:
as §1, with “Transfected cells were seeded at 10,000 cells per well in a volume of 25 μl into black walled collagen coated 384-well microtiter plates and cultured in an incubator at 37°C, 5% CO2 and 95% humidity for 48 h prior to the initiation of calcium mobilization experiments performed on a FlexStation 3 (Molecular Devices, Sunnyvale, CA, USA) platform equipped with a 16-channel robotic pipettor head and FLIPR tetra pipette tips. At 46 h post transfection, cell monolayers were preloaded with 25 μl of the FLIPR Calcium 6 dye (Molecular Devices) for 2 h in an incubator at 37°C, 5% CO2 and 95% humidity according to the manufacturer’s instructions.” left out, “The FlexStation 3 instrument settings, automated pipetting and data collection were all controlled by the SoftMax Pro software, version 7.1.2.” left out

Data set [2] is described as follows: Partition coefficient (logD), shake flask method. Type of data set: physicochemical. As to conditions: n-octanol / pH 7.4 phosphate buffer. The procedure: The partition coefficient (logD) at pH 7.4 of VBJ103 was determined using the shake flask method by Absorption Systems (Exton, PA, USA). The buffer was prepared by combining 50 ml of 0.2-M solution of KH2PO4 with 150 ml of dH2O and then adjusting to pH 7.4 with 10-N NaOH. In a single incubation, 15 μl of a 10-mM DMSO solution of each test article was added to test tubes which contained 0.75 ml of n-octanol and 0.75 ml of pH 7.4 phosphate buffer. Testosterone was also introduced to each tube as an internal control, also at a dosing concentration of 100 μM. These samples were gently mixed on a benchtop rotator for 1 h at room temperature. The tubes were then removed from the rotator, and the aqueous and organic phases were allowed to separate for 1 h. An aliquot of the organic layer was taken and diluted 200-fold into a mixture of 1:1 buffer: acetonitrile (ACN). An aliquot of the aqueous layer was taken and diluted 2-fold, 10-fold and 200-fold into a mixture of 1:1 buffer: ACN. All samples were assayed by LC–MS/MS on a Thermo BDS Hypersil C18 column (30 × 2.1 mm, 3 μm) using electrospray ionization, as previously reported ([Journigan et al., 2020]).

The conditions of data set [3]: ref Journigan et al, 2020; cited from earlier work.
A short description of data set [4]: Core body temperature by radiotelemetry after i.c.v. administration. Type of data set: in vivo, mouse. The settings on record: 3 nmol in 1 μL i.c.v.; within 60 min; in five of eight mice. The method, then: A second set of male C57Bl6J mice (Jackson Laboratories, n = 8) was implanted with telemetry as described above and a 26-gauge brain cannula (Plastics One) targeted at the lateral ventricle using coordinates relative to Bregma: 0.3 mm caudal, 1.0 mm lateral, 3.0 mm ventral. This second procedure was also performed under isoflurane anesthesia. The brain cannula was secured to the skull with two screws and dental cement. Animals were treated with buprenex (0.05 mg·kg^−1, s.c. every 8 h for 48 h) and enrofloxacin (2 mg·kg^−1, s.c.), singly housed and handled daily as described above. A single i.c.v. injection was performed every other day in a randomized order and included: (1) Galanin-like peptide (3 nmol/1 μL), (2) VBJ103 (306 nmol/1 μL) and (3) VBJ103 vehicle (1 μL). Galanin-like peptide produced a decrease in body temperature in five of eight mice. Therefore, body temperature data in response to VBJ103 and vehicle are presented in these five mice. These studies were carried out with a single dose of VBJ103 (306 nmol/1 μL or ~4 mg·kg^−1), which was the highest dose achievable due to constraints of the injection volume and the solubility of VBJ103.

T1 sequence (O75762 whole entry): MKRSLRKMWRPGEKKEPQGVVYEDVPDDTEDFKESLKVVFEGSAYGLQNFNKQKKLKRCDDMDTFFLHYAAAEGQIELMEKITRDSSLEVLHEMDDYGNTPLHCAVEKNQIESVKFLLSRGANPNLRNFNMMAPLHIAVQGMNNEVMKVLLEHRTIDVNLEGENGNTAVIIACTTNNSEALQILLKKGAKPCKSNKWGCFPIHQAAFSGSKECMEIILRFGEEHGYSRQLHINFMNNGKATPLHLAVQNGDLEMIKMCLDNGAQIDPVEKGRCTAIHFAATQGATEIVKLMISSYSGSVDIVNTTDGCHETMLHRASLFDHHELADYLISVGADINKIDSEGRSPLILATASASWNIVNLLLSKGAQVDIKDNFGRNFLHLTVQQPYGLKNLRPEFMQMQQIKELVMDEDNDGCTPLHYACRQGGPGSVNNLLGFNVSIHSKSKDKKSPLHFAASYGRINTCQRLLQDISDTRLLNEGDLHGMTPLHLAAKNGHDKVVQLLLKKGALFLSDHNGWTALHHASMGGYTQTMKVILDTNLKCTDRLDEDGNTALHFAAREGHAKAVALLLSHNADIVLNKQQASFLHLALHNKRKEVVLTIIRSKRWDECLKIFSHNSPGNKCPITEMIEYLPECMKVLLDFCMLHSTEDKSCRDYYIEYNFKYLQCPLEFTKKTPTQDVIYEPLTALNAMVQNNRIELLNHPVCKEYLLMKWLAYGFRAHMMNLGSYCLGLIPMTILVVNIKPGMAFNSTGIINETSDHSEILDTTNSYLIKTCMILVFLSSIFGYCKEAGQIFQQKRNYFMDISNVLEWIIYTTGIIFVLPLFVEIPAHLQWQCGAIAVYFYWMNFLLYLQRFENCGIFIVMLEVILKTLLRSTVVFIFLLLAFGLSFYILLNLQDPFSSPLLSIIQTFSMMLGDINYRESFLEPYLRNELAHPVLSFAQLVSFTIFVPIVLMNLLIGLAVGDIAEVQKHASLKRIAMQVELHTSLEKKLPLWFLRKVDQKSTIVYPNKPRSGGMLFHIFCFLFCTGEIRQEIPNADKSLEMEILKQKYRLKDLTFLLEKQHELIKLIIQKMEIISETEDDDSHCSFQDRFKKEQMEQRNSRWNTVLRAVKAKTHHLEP
T2 sequence (Q8NER1 whole entry): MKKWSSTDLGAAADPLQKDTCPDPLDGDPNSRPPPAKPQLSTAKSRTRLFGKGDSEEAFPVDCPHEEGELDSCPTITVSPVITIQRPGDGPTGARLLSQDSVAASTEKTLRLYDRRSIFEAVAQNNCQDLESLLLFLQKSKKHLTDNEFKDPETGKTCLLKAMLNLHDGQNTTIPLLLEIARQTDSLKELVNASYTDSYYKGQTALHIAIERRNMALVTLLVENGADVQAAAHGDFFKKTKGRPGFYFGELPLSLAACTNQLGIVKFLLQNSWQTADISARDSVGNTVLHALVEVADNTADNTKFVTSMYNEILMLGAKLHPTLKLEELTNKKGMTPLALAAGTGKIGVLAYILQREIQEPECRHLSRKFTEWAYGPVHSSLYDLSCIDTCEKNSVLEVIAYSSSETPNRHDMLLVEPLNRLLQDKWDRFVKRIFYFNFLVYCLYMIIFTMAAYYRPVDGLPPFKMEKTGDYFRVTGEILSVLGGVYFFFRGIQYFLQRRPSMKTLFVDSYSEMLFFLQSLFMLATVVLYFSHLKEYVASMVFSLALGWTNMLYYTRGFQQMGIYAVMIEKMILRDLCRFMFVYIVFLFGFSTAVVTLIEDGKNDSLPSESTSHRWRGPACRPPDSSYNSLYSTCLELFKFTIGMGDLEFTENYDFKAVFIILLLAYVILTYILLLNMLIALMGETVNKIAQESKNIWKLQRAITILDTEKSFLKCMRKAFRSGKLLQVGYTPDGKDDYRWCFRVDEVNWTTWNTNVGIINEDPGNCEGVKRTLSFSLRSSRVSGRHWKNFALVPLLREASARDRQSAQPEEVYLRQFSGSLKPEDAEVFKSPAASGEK

For the molecule `Fc1ccc(C(OCCN2CCN(CCCc3ccccc3)CC2)c2ccc(F)cc2)cc1` [GBR12909, reference compound], the “influence on withdrawal latency to noxious cold stimuli” value with oxaliplatin-treated mice (20 mg·kg−1 alone, third cohort, vehicle 1:1 DMSO:water) is recorded as “no detectable influence”.
Regarding `CC(C)c1ccc(NC(=O)Cn2cnc3c2c(=O)n(C)c(=O)n3C)cc1` [HC-030031, reference compound], the “influence on oxaliplatin-induced cold hypersensitivity” value in the data set on oxaliplatin-treated mice (200 mg·kg−1 alone, second cohort, vehicle 0.5% Methocel) is recorded as “failed to detect an influence”. Further, the AITC-induced nociceptive behaviours result in the data set with AITC-treated mice was “significantly attenuated”. At human TRPA1, the IC50 stood at 2000 ± 830 nM and the “maximum inhibition at TRPA1” value is given as 54%.
As for `COc1cc(CNC(=O)CCCC/C=C/C(C)C)ccc1O` [capsaicin, reference compound], the “time of peak drop in CBT” value in data set [1] is on record as at most 60 min. For the same molecule, in data set [1] (positive control), the “drop in CBT versus s.c. VBJ103 or PBMC” value is recorded as “significantly larger drop”.
Consider `Oc1cc2c(cc1O)CN(C(=S)NCCc1ccc(Cl)cc1)CCC2` [capsazepine, reference compound], for which the IC50 against human TRPV1 was 566 ± 86 nM.
As for `Cl.Cl.Cl.Cl.Cl.Cl.N.N.N.N.N.N.N.N.N.N.N.N.N.N.[O-2].[O-2].[Ru+3].[Ru+3].[Ru+4]` [ruthenium red, reference compound], the IC50 against human TRPA1 is 53 ± 7 nM.
As to `C[C@]12CC[C@H]3[C@@H](CCC4=CC(=O)CC[C@@]43C)[C@@H]1CC[C@@H]2O` [testosterone, reference compound], in data set [2], the logD at 1 h worked out at 3.09. Besides, the “Mouse Liver microsomes, T1/2” value in data set [3] is recorded as 3.7 min.
As to “galanin-like peptide: peptide given i.c.v. as positive control for a decrease in body temperature (APAHRGRGGWTLNSAGYLLGPVLHLPQMGDQDGKRETALEILDLWKAIDGLPYSHPPQPS; Galanin-like peptide; UniProt Q9UBC7 25-84, looked up) [reference compound]”, the “decrease in CBT” value in data set [4] is over 3 °C.

Values taken from publication PMC12459314, “Subcutaneous administration of a novel TRPM8 antagonist reverses cold hypersensitivity while attenuating the drop in core body temperature” (British journal of pharmacology, 2024).
